Series [1] has as its system post-operative pain. Conditions: in vivo.
The subject of series [2] is post-operative pain. Further details: species or system human. Particulars: in vivo.

The values below come from patent US20100184685A1 (priority 2009, published 2010).

Where “and” joins values, the source holds several entries; their conditions need not be identical. Equal values may be shown once.

Turning to `CCCCN1CCCCC1C(=O)Nc1c(C)cccc1C` (stereo not shown) [Marcaine], in series [1], the “pain on the visual analog pain scale” value is given as 3-4 /10, the “requirement for patient controlled analgesic (PCA) administration during hospitalization” value is “did not require any patient controlled analgesic (PCA) administration” and the “signs of infection at the previous infusion catheter sites” value is “without signs of infection”. Moreover, the “pain level on the visual analog pain scale” value in series [2] was 5-6 /10 and 4 /10.
